From US3970642A, “Process for the conversion of niddamycin to leucomycin A1, leucomycin A3, carbomycin B and other antibiotics and related 3-O-esters” (Abbott Laboratories, priority 1974, dated 1976)
Converted amounts (≈) assume the structure as drawn.

How the values were obtained:
Type in all cases: cell-based
[1] = tested on: Streptococcus pyogenes C203; experiment: Standard two-fold tube dilution test, activity against Streptococcus pyogenes C203; details: brain-heart infusion broth, 24 hours at 37°C, read-out: Minimum Inhibitory Concentration
Description: (§1) Three nid damycin and two dihydroniddamycin compounds were tested for their activity against Streptococcus pyogenes C203, and Diplococcus pneumoniae 6301 and Mycoplasma pneumoniae FH.
(§2) A standard two-fold tube dilution test was used. The medium inoculum were varied with each culture.
In the test for activity against Streptococcus pyogenes C203, 5 ml. portions of brain-heart infusion broth were used with 0.1 ml. of 1:100 dilution culture. The test was incubated for 24 hours at 37°C.

[2] = tested on: Diplococcus pneumoniae 6301; experiment: Standard two-fold tube dilution test, activity against Diplococcus pneumoniae 6301; details: Streptococcus pneumoniae, brain-heart infusion broth and 20% horse serum, 24 hours at 37°C, read-out: Minimum Inhibitory Concentration
Description: as §1, §2
In the test for activity against Diplococcus pneumoniae 6301, 5 ml. portions of brain-heart infusion broth and 20% horse serum were used with 0.1 ml. of 1:100 dilution culture. The test was incubated for 24 hours at 37°C.

[3] = tested on: Mycoplasma pneumoniae FH; experiment: Standard two-fold tube dilution test, activity against Mycoplasma pneumoniae FH; details: 144 h, PPLO broth, six days at 37°C, read-out: Minimum Inhibitory Concentration
Description: as §1, §2
In the test for activity against Mycoplasma pneumoniae FH, 4.5 ml. portions of PPLO broth were used with 0.5 ml. of 1:100 dilution culture. The test was incubated for six days at 37°C.

Row | Compound | MIC [1] [µg/mL] | MIC [2] [µg/mL] | MIC [3] [µg/mL]
1 | COC(CC1CC(C)C(=O)C=CC=CCC(C)OC(=O)CC(O)C(OC)C1OC1OC(C)C(OC2CC(C)(O)C(OC(=O)CC(C)C)C(C)O2)C(N(C)C)C1O)OC (stereo not drawn) [Compound 2, Niddamycin dimethyl acetal] | 0.78 (≈ 0.94 µM) | < 1.56 | 25 (≈ 30.1 µM)
2 | COC(CC1CC(C)C(=O)C=CC=CCC(C)OC(=O)CC(OC(C)=O)C(OC)C1OC1OC(C)C(OC2CC(C)(O)C(OC(=O)CC(C)C)C(C)O2)C(N(C)C)C1OC(C)=O)OC (stereo not drawn) [Compound 3B, 2',3-Di-(O)-acetylniddamycin dimethyl acetal] | > 100 | > 100 | > 100
3 | COC(CC1CC(C)C(=O)C=CC=CCC(C)OC(=O)CC(OC(C)=O)C(OC)C1OC1OC(C)C(OC2CC(C)(O)C(OC(=O)CC(C)C)C(C)O2)C(N(C)C)C1O)OC (stereo not drawn) [Compound 6B, 3-(O)-Acetylniddamycin dimethyl acetal] | 12.5 (≈ 14.3 µM) | – | 25 (≈ 28.7 µM)

Further lines, results first:

Row | MIC [1] [µg/mL] | MIC [2] [µg/mL] | MIC [3] [µg/mL] | Compound
4 | 6.2 (≈ 7.45 µM) | – | 50 (≈ 60.1 µM) | COC(CC1CC(C)C(O)C=CC=CCC(C)OC(=O)CC(O)C(OC)C1OC1OC(C)C(OC2CC(C)(O)C(OC(=O)CC(C)C)C(C)O2)C(N(C)C)C1O)OC (stereo not drawn) [Compound 4, 9-Dihydroniddamycin B dimethyl acetal]
5 | 25 (≈ 28.6 µM) | – | 50 (≈ 57.2 µM) | COC(CC1CC(C)C(O)C=CC=CCC(C)OC(=O)CC(OC(C)=O)C(OC)C1OC1OC(C)C(OC2CC(C)(O)C(OC(=O)CC(C)C)C(C)O2)C(N(C)C)C1O)OC (stereo not drawn) [Compound 8B, 3-(O)-Acetyl-9-dihydroniddamycin B dimethyl acetal]
